From article PMC5904360, “Soluble N-Ethylmaleimide-Sensitive Factor Attachment Protein Receptor-Derived Peptides for Regulation of Mast Cell Degranulation” (Frontiers in Immunology, 2018)

Assays:
NC/Nga mice = experiment: DNCB-induced atopic dermatitis-like skin lesions; assay type: in vivo, mouse; conditions: 0.3 and 3% peptide/day or 0.1% dexamethasone/day for 4 weeks, n = 10 per group (Figure 5D)
Excerpt: Seven-week-old NC/Nga mice were purchased from the Shizuoka Laboratory Animal Center (Shizuoka, Japan) and allowed to adapt to the environment for a week prior to use. The procedures for the induction of atopic dermatitis-like symptoms in mice using 1-chloro-2,4-dinitro-benzene (DNCB) have been well described previously ([27]). Briefly, the dorsal hair of the mice was shaved 2 days before DNCB administration. For the induction of atopic dermatitis, 1% DNCB was applied to the dorsal skin of the mice twice weekly for 7 days and then 0.2% DNCB was applied thrice weekly for 21 days. The mice were divided into the following […] treatment groups (n = 10 per group): 0.3 and 3% Vp2N/day, 0.3 and 3% Vp8N/day, 0.1% dexamethasone/day, and vehicle only, dorsally administered from 9 to 13 weeks of age. As a negative control for atopic dermatitis, NC/Nga mice that were not treated with DNCB were maintained under pathogen-free conditions. Laboratory animal breeding management was based on the “Guide for the Care and Use of Laboratory Animals,” and all experiments were approved by the Institutional Animal Care and Use Committees of Gyeonggi Institute of Science & Technology.

[1] = topical glucocorticosteroid; cited from earlier work
SN23-Syn4-Vp2 complex = target: T1, SN23-Syn4-Vp2 complex (Rattus norvegicus, UniProt O70377+P63045+Q08850); experiment: Co-immunoprecipitation of SNARE complexes in activated RBL-2H3 cells, anti-SNAP-23 blot; assay type: cell-based; conditions: peptides added to the medium after A23187 pretreatment; IP of Vp2, blot anti-SNAP-23 (Figure 4C)
T1 construct: Lysates of RBL-2H3 cells; endogenous in cells; host or cells: RBL-2H3 (ATCC CRL-2256)
Protocol: (§1) Lysates of RBL-2H3 cells (0.5–1 × 10^6 cells), which were obtained by the addition of 1 mL lysis buffer (50 mM Tris–HCl, 150 mM NaCl, 1% Triton X-100™, 1 mM EDTA, pH 7.5) supplemented with a protease inhibitor cocktail (Calbiochem®, Merck Millipore, Billerica, MA, USA), were centrifuged at 13,000 g at 4°C to remove cell debris and precleared with 100 µL protein G Sepharose® (GE Healthcare) for 2 h at 4°C. The precleared lysates were incubated with antibodies against SNARE proteins (Syn4, SNAP-23, VAMP2, and VAMP8) for 2 h at 4°C for binding, and then the antibody–antigen complexes were precipitated by incubation with a protein G slurry overnight with constant shaking. After an extensive washing step with lysis buffer, an immunoblotting analysis was performed for the precipitates. The immunoprecipitated proteins and cell lysates were electrophoresed on 12% sodium dodecyl sulfate-polyacrylamide gel electrophoresis gels and then transferred to nitrocellulose blotting membranes (GE Healthcare). After blocking the membranes in TBST (10 mM Tris–HCl, 150 mM NaCl, and 0.05% Tween® 20, pH 8) containing 0.5% BSA and 5% skim milk for 1 h at room temperature, primary anti-SNAP-23 antibody (1:1,000 dilution) in TBST supplemented with 1% BSA and 0.01% sodium azide was added and incubated at 4°C overnight. The membranes were washed with TBST, treated with a horseradish peroxidase-conjugated secondary anti-mouse IgG antibody (A4416, Sigma-Aldrich), and visualized using enhanced chemiluminescence solution for the development of a luminescent signal.

SN23-Syn4-Vp8 complex = target: T2, SN23-Syn4-Vp8 complex (Rattus norvegicus, UniProt O70377+Q08850+Q9WUF4); experiment: as above; assay type: cell-based; conditions: peptides added to the medium after A23187 pretreatment; IP of Vp8, blot anti-SNAP-23 (Figure 4C)
T2 construct: Lysates of RBL-2H3 cells; endogenous in cells; host or cells: RBL-2H3 (ATCC CRL-2256)
T2 sequence (Q08850 1-298): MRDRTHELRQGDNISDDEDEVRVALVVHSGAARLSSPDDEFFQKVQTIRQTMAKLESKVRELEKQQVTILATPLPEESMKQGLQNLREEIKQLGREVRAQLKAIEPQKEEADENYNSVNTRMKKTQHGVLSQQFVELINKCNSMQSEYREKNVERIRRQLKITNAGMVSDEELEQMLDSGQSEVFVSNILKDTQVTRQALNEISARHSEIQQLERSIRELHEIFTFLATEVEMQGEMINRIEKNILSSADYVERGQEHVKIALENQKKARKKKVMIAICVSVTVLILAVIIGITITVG
T2 sequence (O70377 1-210): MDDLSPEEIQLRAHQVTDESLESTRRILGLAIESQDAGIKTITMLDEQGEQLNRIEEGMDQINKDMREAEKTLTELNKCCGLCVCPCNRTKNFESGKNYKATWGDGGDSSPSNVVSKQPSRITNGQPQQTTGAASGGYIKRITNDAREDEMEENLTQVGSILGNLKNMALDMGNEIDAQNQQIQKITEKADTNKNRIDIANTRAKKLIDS
T2 sequence (Q9WUF4 1-100): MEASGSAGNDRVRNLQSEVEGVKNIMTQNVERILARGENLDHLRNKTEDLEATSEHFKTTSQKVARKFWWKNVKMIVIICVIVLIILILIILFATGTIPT
Protocol: as §1

RBL-2H3 mast cells [2] = experiment: Degranulation assay, histamine release (enzyme immunoassay); assay type: cell-based, rat
RBL-2H3 mast cells [3] = experiment: Degranulation assay, β-hexosaminidase release; assay type: cell-based, rat
[4] = cells pretreated with A23187, sensitized with DNP-IgE, then PTD-conjugated peptide (Figure 4B)

T1 sequence (P63045 whole entry, one chain of several): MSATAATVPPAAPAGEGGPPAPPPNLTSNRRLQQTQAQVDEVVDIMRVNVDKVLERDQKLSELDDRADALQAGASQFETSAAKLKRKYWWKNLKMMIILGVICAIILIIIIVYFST

Compound | ear thickness (NC/Nga mice) | side effect [1] | SNARE complex formation in cells (amount of SN23-Syn4-Vp2 complex) (SN23-Syn4-Vp2 complex) | SNARE complex formation in cells (amount of SN23-Syn4-Vp8 complex) (SN23-Syn4-Vp8 complex) | inhibition of histamine release (RBL-2H3 mast cells [2]; PTD-conjugated peptide without SLO (LY294002 as positive control), DNP-IgE sensitized, DNP-BSA stimulation, no A23187 pretreatment, three independent experiments (Figure 2C)) | inhibition of histamine release after A23187 pretreatment (RBL-2H3 mast cells [2]; [4]) | reduction of β-hexosaminidase release (RBL-2H3 mast cells [3]; 10 µM PTD-fused peptide without SLO (LY294002 as positive control), DNP-BSA stimulation, no A23187 pretreatment, three independent experiments (Figure 2A gray bars, 2C)) | inhibition of β-hexosaminidase release after A23187 pretreatment (RBL-2H3 mast cells [3]; [4])
C[C@@H]1C[C@H]2[C@@H]3CCC4=CC(=O)C=C[C@]4(C)[C@@]3(F)[C@@H](O)C[C@]2(C)[C@@]1(O)C(=O)CO [Dexamethasone, dexamethasone, reference compound] | recovered the ear thickness to the normal range | skin thinning | – | – | – | – | – | –
O=c1cc(N2CCOCC2)oc2c(-c3ccccc3)cccc12 [LY294002, reference compound] | – | – | did not inhibit | did not inhibit | efficiently inhibited | efficiently inhibited | efficiently inhibited | efficiently inhibited
